The results in this text go back to patent publication US12065485B2, “Treatment of staphylococcal disorders” (priority 2013, dated 2024).

The structures appear in SMILES notation. Counter-ions that a name gives are not always drawn.

The term % Inhibition denotes how much of the control response was suppressed. The low end stands for a response near the control, the high end for a response far below the control. A word on the inhibition: it is the percentage by which the read-out fell short of the control.

The first experiment has as its system P3 promoter (RNAIII / delta-toxin expression). In words: USA300-P3-Luc reporter screen for inhibition of RNAIII induction (P3 promoter activation by AIP). The format is cell-based, Staphylococcus aureus. Conditions: 40 μM compound, 2 hours at 37° C., luminescence; relative to positive control (USA400 inhibitory AIP supernatant). As for the experimental part: Staphylococcus aureus pulse-field gel electrophoresis (PFGE) type USA300 transformed with a plasmid containing the P3 promoter followed by the luciferase gene (USA300-P3-Luc) was grown in tryptic soy broth (TSB) to […] (5×10^8 CFU/mL), as determined by optical density at 600 nm, from overnight cultured bacteria and harvested via centrifugation (4,000×g, 4° C., 5 minutes). Supernatant was removed and the bacterial pellet was washed twice with an equal volume of PBS. Bacteria were suspended in PBS at 5×10^8 CFU/mL, as confirmed by plating serial dilutions onto TSB. 2×10^6 CFU washed USA300-P3-Luc was incubated with wt USA300 8-hour filtered supernatant containing stimulatory auto-inducing peptide (AIP) at a final dilution of 1:10 and 40 μM each compound in a total of 40 μL/well of TSB on a 384-well plate. The S. aureus two-component agr system induces delta-toxin expression via expression of AIP at stationary growth phase and was used to stimulate activation of the P3 promoter. Alternatively, AIP produced by a different S. aureus strain, PFGE type USA400, acts to inhibit delta-toxin expression in USA300. As a positive control, samples were incubated with USA400 8-hour filtered supernatant containing inhibitory AIP at a final dilution of 1:10 instead of test compound. Samples were incubated at 37° C. for 2 hours, then analyzed for luminescence and optical density at 600 nm. Percent Inhibition was determined by the following formula: Percent inhibition=100×(LumNo Inhibitor−Lumcompound)/(LumNo Inhibitor.−LumPositive control). Inhibitory compounds suitable for use in methods of inhibiting skin inflammation according to the disclosure were identified (Table 2) based on at least a 40% inhibition relative to the positive control, minimal reduction in growth as determined by optical density at 600 nm, and relatively low promiscuity (<10%) in relation to other high-throughput assays performed using these compounds.
Consider `Cc1ccc(S(=O)(=O)N[C@@H](Cc2ccccc2)C(=O)CCl)cc1` [TPCK], for which the “% Inhibition” value is recorded as 87.8%.
Still for that read-out and setting: with `CC(=O)Oc1cccc2c1C(=O)c1c(OC(C)=O)cc(C(=O)O)cc1C2=O` [DIACERIN] the figure was 76%; with `NCCCNCCCCNC(=O)C(NC(=O)CCCCCN=C(N)N)c1ccc(Br)cc1` (centres unmarked) [4Br-AHX], 55.8%.
Same read-out and setting: next, `COc1ccc(CNC(=O)Nc2ncc([N+](=O)[O-])s2)cc1` [361549, GSK-3b Inhibitor VIII, GSK-3b Inhibitor VIII]: 73.7%; `C[C@@H]1CC[C@@]2(OC1)O[C@H]1C[C@H]3[C@@H]4CC[C@@H]5C[C@@H](O)CC[C@]5(C)[C@H]4CC[C@]3(C)[C@H]1[C@@H]2C` [SMILAGENIN]: 75.3%.
Still for that read-out and setting: next, `O=C(O)c1ccccc1Nc1cccc2c1C(=O)c1cccc(Nc3ccccc3C(=O)O)c1C2=O` [NCI16221]: 49.9%; `O=c1c(O)c(-c2ccccc2)oc2cc(O)cc(O)c12` [Galangine]: 79.5%; `CCCC[C@@H](CC)COC(=O)C(C#N)=C(c1ccccc1)c1ccccc1` [OCTOCRYLENE | EUSOLEX, OCTOCRYLENE]: 97.9%.

Still in this experiment, the particulars now being: Staphylococcus aureus, USA300, 2 h.
With `C=C1C[C@]23C[C@@]1(O)CC[C@H]2[C@@]12C=C[C@H](O)[C@@](C)(C(=O)O1)[C@H]2[C@@H]3C(=O)O` [G[…]], at 40 µM the inhibition was 60.5%.

The experiment is the same for the next values; noted with them: Staphylococcus aureus; 40 μM compound, 2 hours at 37° C., luminescence; relative to positive control (USA300 inhibitory AIP supernatant); read-out: % Inhibition.
`C#C[C@]1(O)CC[C@H]2[C@@H]3CCC4=CC(=O)CC[C@@H]4[C@H]3CC[C@@]21C` [NORETHINDRONE]: the inhibition at 40 µM came to 52.4%.
Same read-out and setting: with `CC(C)c1nc(CN(C)C(=O)N[C@H](C(=O)N[C@@H](Cc2ccccc2)C[C@H](O)[C@H](Cc2ccccc2)NC(=O)OCc2cncs2)C(C)C)cs1` [CPD000466395_RITONAVIR, RITONAVIR] the figure was 85.7%; with `Cc1cc(CC(=O)O)n(C)c1C(=O)c1ccc(Cl)cc1` [ZOMEPIRAC SODIUM], 64.8%; with `O=C1c2cccc(O)c2C(=O)c2c(O)cccc21` [DANTRON], 76.1%.
On the same count and under the same terms, next, `O=C(N/N=C/c1ccc([N+](=O)[O-])o1)c1cc([N+](=O)[O-])cc([N+](=O)[O-])c1O` [NIFURSOL]: 63.9%; `Nc1ccc(/N=N/c2ccccc2)c(N)n1` [PHENAZOPYRIDINE HYDROCHLORIDE]: 75.5%; `O=C1C(Cl)=C(Cl)C(=O)C(Cl)=C1Cl` [CHLORANIL]: 47.7%.
For `Cc1ccsc1C(=CCCN1CCC[C@@H](C(=O)O)C1)c1sccc1C` [CPD000469176_TIAGABINE HCl, TIAGABINE HCl], the inhibition at 40 µM came out at 69.7%.
With `C#C[C@]1(O)CC[C@H]2[C@@H]3CCC4=Cc5oncc5C[C@]4(C)[C@H]3CC[C@@]21C` [DANAZOL], the inhibition at 40 µM is 47.4%.
With `CCOc1cc(CC(=O)N[C@@H](CC(C)C)c2ccccc2N2CCCCC2)ccc1C(=O)O` [CPD000466305_REPAGLINIDE, REPAGLINIDE], the inhibition at 40 µM stood at 49%.
Same read-out and setting: next, `COc1ccnc(C[S+]([O-])c2nc3ccc(OC(F)F)cc3[nH]2)c1OC` (centres unmarked) [PANTOPRAZOLE | PROTONIX, PANTOPRAZOLE]: 52.8%; `O=C(O)c1ccccc1Nc1cccc(OCc2ccc3ccccc3n2)c1` [SR 2640]: 98.7%; `O=C(NC(=O)c1c(F)cccc1F)Nc1cc(Cl)c(OC(F)(F)C(F)C(F)(F)F)cc1Cl` (centres unmarked) [LUFENURON | PROGRAM, LUFENURON]: 55.8%.
Still for that read-out and setting: with `O=C(/C=C/c1ccc(O)cc1)c1ccccc1O` [2′,4-DIHYDROXYCHALCONE] the figure was 71.9%.
Still for that read-out and setting: with `CC(C)c1ccc2c(c1)c(SC(C)(C)C)c(CC(C)(C)C(=O)O)n2Cc1ccc(Cl)cc1` [1H-Indole-2-propanoic acid, 1-[(4-chlorophenyl)methyl]-3-[(1,1-dimethylethyl)thio]-Alpha,Alpha-dimethyl-5-(1-methylethyl)-] the figure was 86.3%; with `Cc1ccc(Nc2c(F)cccc2Cl)c(CC(=O)O)c1` [LUMIRACOXIB | PREXIGE, LUMIRACOXIB], 60%.
Regarding `NCCOB(c1ccccc1)c1ccccc1` [AMINOETHOXYDIPHENYLBORANE], the inhibition at 40 µM is 82.1%.
On the same count and under the same terms, next, `Cc1c(Nc2ncccc2C(=O)O)cccc1C(F)(F)F` [FLUNIXIN MEGLUMINE | BANAMINE, FLUNIXIN MEGLUMINE]: 69.2%; `CSc1ccc(/C=C2/C(C)=C(CC(=O)O)c3cc(F)ccc32)cc1` [Sulindac Sulfide]: 72.4%.
Same read-out and setting: with `COc1ccc(-c2c(O)c3c(OC)c4c(cc3oc2=O)OC(C)(C)C=C4)cc1` [ROBUSTIC ACID] the figure was 96.9%.
Same read-out and setting: with `O=C(O)c1nn(Cc2ccc(Cl)cc2Cl)c2ccccc12` [Lonidamine] the figure was 71.3%; with `O=C(c1ccc(F)cc1)C1CCN(CCn2c(=S)[nH]c3ccccc3c2=O)CC1` [CPD000466283_Altanserin, Altanserin], 59%; with `c1ccc2c(c1)sc1ccccc12` [DIBENZOTHIOPHENE], 50.7%.
For the compound `Oc1c2ccccc2c2c3c(cccc13)N=N2` [SP 600125], the inhibition at 40 µM came to 45.3%.
On the same count and under the same terms, with `CCC(=O)O[C@H]1CC[C@H]2[C@@H]3CCC4=CC(=O)CC[C@]4(C)[C@H]3CC[C@]12C` [TESTOSTERONE PROPIONATE] the figure was 65.7%; with `CC[C@H](c1ccc(O)cc1)[C@@H](CC)c1ccc(O)cc1` [HEXESTROL], 99.9%.
On the same count and under the same terms, next, `CCCc1c(OCCCCc2nnn[nH]2)ccc(C(C)=O)c1O` [CPD000058555_LY 171883, LY 171883]: 48.7%; `O=C(O)c1cc2cc(Cl)ccc2[nH]1` [5-CHLOROINDOLE-2-CARBOXYLIC ACID]: 47.8%; `C=C1CC[C@H](O)C/C1=C/C=C1\CCC[C@]2(C)[C@@H]([C@H](C)/C=C/[C@H](C)C(C)C)CC[C@@H]12` [ERGOCALCIFEROL]: 51.9%.
On to `Oc1cc2c(cc1O)C1c3ccc(O)c(O)c3OCC1(O)C2` (centres unmarked) [HAEMATOXYLIN], for which the inhibition at 40 µM was found to be 62.9%.
Still for that read-out and setting: with `C[C@H](CCC(=O)O)[C@H]1CC[C@H]2[C@@H]3CC[C@@H]4CCCC[C@]4(C)[C@H]3CC[C@]12C` [URSOCHOLANIC ACID] the figure was 61.3%; with `CC(=O)O[C@]1(C(C)=O)CC[C@H]2[C@@H]3C=C(C)C4=CC(=O)CC[C@]4(C)[C@H]3CC[C@@]21C` [MEGESTROL ACETATE], 46.5%; with `CO/N=C1\C[C@]2(C[C@@H]3C[C@@H](C/C=C(\C)C[C@@H](C)/C=C/C=C4\CO[C@@H]5[C@H](O)C(C)=C[C@@H](C(=O)O3)[C@]45O)O2)O[C@H](/C(C)=C/C(C)C)[C@H]1C` [MOXIDECTIN | CYDECTIN, MOXIDECTIN], 58.9%.
On the same count and under the same terms, next, `Oc1nc(-c2ccc(C(F)(F)F)cc2)nc2c1CSCC2` [XAV939]: 53.4%.
Same read-out and setting: next, `Cc1ccc(Cl)c(Nc2ccccc2C(=O)O)c1Cl` [SODIUM MECLOFENAMATE]: 90.9%; `CC(C)c1cc2c(c(O)c1O)[C@@]1(C(=O)O)CCCC(C)(C)[C@@H]1CC2` [CARNOSIC ACID]: 95.8%.
For `C/C=C(/C(=C/C)c1ccc(O)cc1)c1ccc(O)cc1` [DIENESTROL], the inhibition at 40 µM turned out to be 90.8%.
On the same count and under the same terms, next, `COc1cc(C)c(Cc2cnc(N)nc2N)cc1OC` [CPD000466374_ORMETOPRIM, ORMETOPRIM]: 53.2%; `COC(=O)CC[C@@H](C)[C@H]1CC[C@H]2[C@@H]3CC[C@@H]4C[C@H](O)CC[C@]4(C)[C@H]3C[C@H](O)[C@]12C` [METHYL DEOXYCHOLATE]: 78.9%; `O=C(O)Cc1ccccc1Nc1c(Cl)cccc1Cl` [Benzeneacetic acid, 2-[(2,6-dichlorophenyl)amino]-, monosodium salt]: 65.1%.
For `CN1C[C@H](C(=O)N[C@]2(C)O[C@@]3(O)[C@@H]4CCCN4C(=O)[C@H](Cc4ccccc4)N3C2=O)C[C@@H]2c3cccc4[nH]cc(c34)C[C@H]21` [DIHYDROERGOTAMINE MESYLATE], the inhibition at 40 µM is 52.2%.
Still for that read-out and setting: with `O=C1OC(c2ccc(O)cc2)(c2ccc(O)cc2)c2ccccc21` [PHENOLPHTHALEIN] the figure was 72.4%; with `Cc1cc(O)c2c(c1)C(=O)c1cccc(O)c1C2=O` [CHRYSOPHANOL], 47.2%; with `COC(=O)[C@H](c1ccccc1Cl)N1CCc2sccc2C1` [CLOPIDOGREL SULFATE], 69.4%.
